One data set has as its system HEK293 cells. As to conditions: cells incubated with free DOX, literature; cited from earlier work.
A short description of data set [1]: In vitro DOX release study (dialysis). As to conditions: 96 hours, either pH. In kind it is physicochemical. The method, then:
An in vitro DOX release study was also performed wherein D-LMNs, M-LMNs, and free DOX were each dispersed in 1 ml PBS buffer containing 1% Tween 20 (pH 7.3 or pH 5.1) and placed in a dialysis membrane (MWCO of 12000-14000 Da), The bag was then immersed in a tube containing 10 mL of the same PBS buffer ([…] or pH 5.1) and incubated at 37° C. At specific time intervals the DOX content in the PBS was analyzed using the UV-VIS spectrophotometer at 485 nm. Samples were all done in triplicate. M-LMNs were used as a blank. The release of the encapsulated DOX from D-LMNs was determined at pH 7.3, which is the physiological pH, and at pH 5.1, which represents the acidic pH inside endosomes, lysosomes, and solid tumors. One percent Tween 20 was used because it forms hydrophobic pockets, which can stabilize the released DOX from the D-LMNs, and helps to avoid aggregation of the hydrophobic DOX in the aqueous environment.

The source of these data is patent US20130243867A1, “MICELLE COMPOSITIONS AND METHODS FOR THEIR USE” (University of South Florida (A Florida Non-Profit …, priority 2012, published 2013).

Take `COc1cccc2c1C(=O)c1c(O)c3c(c(O)c1C2=O)C[C@@](O)(C(=O)CO)C[C@@H]3O[C@H]1C[C@H](N)[C@H](O)[C@H](C)O1.Cl` [free DOX, doxorubicin hydrochloride]: the “location of DOX in cells” value in the data set with HEK293 cells is “found in the nuclei intercalated with DNA”. Further, the DOX released entry in data set [1] is reported as “more than 90%”.
